Key:
[1] = tested on: HIV Bal strain; assay: HIV RT activity in HIV Bal strain-infected MDM; type: cell-based, HIV-1; conditions: for HIV RT activity increased: MDM, 12 days after infection (FIG. 1A)
Procedure: The cells were also incubated with SP and/or anti-SP antibody. In this case, SP was incubated with (1:1000 dilution in 10% FCS DMEM) or without anti-SP antibody at room temperature for 10 min and then the mixture was added to the cell cultures for 2 h. When the cells were treated with the combination of CP-96,345 and SP, or CP-96,345, SP and anti-SP antibody, CP-96,345 was incubated with the cell culture for 10 min and then SP was added to the MDM or CP-96,345, SP and anti-SP (1:1000 in 10% FCS DMEM) were incubated for 10 min at room temperature and the mixture was incubated with the MDM for 2 h before infection with HIV. Untreated MDM served as controls. The cells were treated prior to, during, and throughout the infection.
HIV Infection: After 2 h incubation with or without the reagents described above, the cells were infected with equal amounts of cell-free HIV based on p24 antigen content (20 ng/10^6 cells) overnight, and then washed to remove unbound virus. Fresh media containing SP and/or CP-96,345 or anti-SP antibody were added to the MDM as described above. The culture media and the reagents were replaced twice weekly. The culture supernatants were harvested for HIV reverse transcriptase (RT) activity determinations. After HIV infection, the MDM were incubated for 8 to 12 days. At the termination of the experiments, cellular RNA was extracted for assessment of HIV gag gene expression using RT-PCR or real time RT-PCR assays.
The HIV RT activity assay was carried out based on the technique of Willey et al. (30) with modification (22).

[2] = tested on: CCR5; assay: Macrophage receptor expression by flow cytometry; type: cell-based, human; conditions: overnight/24 h; among CD4, CCR5, CXCR4 and CD14 only CCR5 changed (FIG. 8)
Procedure: The cells were removed from the culture plate and then resuspended in 100 μl of phosphate-buffered saline (PBS). After incubation with 20 μl of either anti-CCR5-FITC or anti-CXCR4-FITC or anti-CD4-FITC or anti-CD14-FITC for 45 min at 4° C., the cells were washed twice with PBS and fixed with 1% paraformaldehyde in PBS. Fluorescein-conjugated control antibodies were isotype-matched IgG. Fluorescence was analyzed on an EPICS-Elite flow cytometer (Beckman-Coulter Electronics, Hialeah, Fla.).

[3] = tested on: HIV LTR promoter; assay: HIV LTR-driven CAT activity assay in U38 cells; type: cell-based
From the text: ACH-2 and U38 cell lines (25, 26) were obtained from the NIH AIDS Reagent Program. DNA extracted from ACH-2 cells was used as a positive standard for HIV DNA PCR as previously reported (27). The U38 cell line contains stably integrated, silent copies of the HIV LTR (long terminal repeat) promoter linked to a CAT (chloramphenicol acetyltransferase) gene and was used to study the effect of SP and/or CP-96,345 and R-113281 on the activation of HIV LTR promoter.
Chloramphenicol acetyltransferase (CAT) activity assay:U38 cells (2×10^6 cells) were incubated with different concentrations of SP and/or CP-96,345 or R-113281 for 48 h. Untreated U38 cells were used as a background control. Cellular proteins were extracted using 1× Reporter Lysis Bufffer (Promega Corp., Madison, Wis.). The lysates were incubated with a mixture containing 0.15 μCi of ^14C-labeled chloramphenicol (DuPont Inc., Boston, Mass.) and 200 μg/ml of n-Butyryl CoA (Promega Corp., Madison, Wis.) in a total volume of 125 μl at 37° C. for 3 h. The acetylated forms of chloramphenicol were extracted with xylene (Aldrich Chemical Company, Milwaukee, Wis.). CAT activity of each sample was quantified using a liquid-scintillation counter (Packard Instrument Company, Downers Grove, Ill.). The results were expressed as the ratio of CAT activity (CPM) of the SP and/or CP-96,345-treated or R-113281-treated U38 to that of the background control.

Row | Molecule | viral replication by HIV RT activity vs HIV infection control ([1]; 10^−7M, 8 days after infection (FIG. 4)) | CCR5 receptor expression on MDM (percentage positive cells) [2] | effect of SP alone on HIV replication (RT activity and gag mRNA) ([1]; SP 10^−6M, 12 days after infection (FIG. 5)) | HIV RT activity increased ([1]; SP 10^−6M) [%] | HIV RT activity increased ([1]; SP 10^−8M) [%] | HIV RT activity increased ([1]; SP 10^−10M) [%] | HIV LTR-driven CAT activity vs untreated baseline ([3]; SP 10^−5M, 48 hours (FIG. 16)) | HIV LTR-driven CAT activity vs untreated control cells ([3]; SP 10^−10 to 10^−6M, 48 h, P<0.05 (FIG. 7))
1 | COc1ccccc1CN[C@H]1C2CCN(CC2)[C@H]1C(c1ccccc1)c1ccccc1 [CP-96,344] | did not have the effect | did not affect | – | – | – | – | – | –
2 | Substance P [SP] | – | – | enhanced HIV replication | 58 | 40 | 14 | significantly increases | significantly increased

Source: US20020094524A1, “Compositions and methods for inhibiting HIV infection” (priority 2000, published 2002)
